Drawing on patent US20250325689A1, “ANTIBODY-MULTIDRUG CONJUGATE” (UBE CORPORATION, priority 2022, published 2025), this text covers IC50 for one molecule.

Starred links: 1 amine or outer side, 2 acyl side, 3 side chain; linkers in the order of their positions; H or OH if unused. Non-standard residues stand in square brackets, D forms with d. Residues, ends and D or L forms follow the SMILES beside them. *: point of attachment. Dolaproine = CO[C@@H]([C@@H]1CCCN1)[C@@H](C)C(=O)O; X2 = C[C@@H](N[*:1])[C@@H](OC(=O)[*:2])c1ccccc1; Dil = CC[C@H](C)[C@H](NC)[C@@H](CC(=O)O)OC; X4 = OCC1OC(n2cc(CN*)nn2)C(O)C(O)C1O; NMeV = CN[C@H](C(=O)O)C(C)C

The target in this assay is T1, porcine tubulin (Sus scrofa, UniProt P02550+P02554).
T1 construct: purchased Cytoskeleton, Inc. BKO11P
Description: Tubulin polymerization inhibition test. Type of assay: biochemical. The settings on record: 37° C., fluorescence measured for 60 minutes. The method, then:
For measuring the tubulin polymerization inhibitory action, Tubulin Polymerization Assay Kit (manufactured by Cytoskeleton, Inc., BKO11P) was used. A PIPES buffer containing porcine tubulin, GTP, MgCl2, EGTA, Glycerol, and a fluorescent reporter was prepared under ice-cooling as a reaction solution. The reaction solution was ice-cooled until it was used. A test compound solution was prepared by an aqueous solution containing 1.5% DMSO, and added to a 96 well plate (manufactured by Corning Inc., 3686) at 5 μL/well. The reaction solution was added thereto at 50 μL/well, the plate was placed in a microplate reader (FlexStation 3, manufactured by Molecular Device, LLC) in which the internal temperature was set to 37° C. in advance, and the fluorescence intensity measurement (excitation wavelength: 360 nm, detection wavelength: 420 nm) of each well was started. The fluorescence intensity was measured once every minute, and the measurement was continued for 60 minutes.
The tubulin polymerization inhibition rate (%) was calculated by the following equation. […]

T1 sequence (P02550 whole entry): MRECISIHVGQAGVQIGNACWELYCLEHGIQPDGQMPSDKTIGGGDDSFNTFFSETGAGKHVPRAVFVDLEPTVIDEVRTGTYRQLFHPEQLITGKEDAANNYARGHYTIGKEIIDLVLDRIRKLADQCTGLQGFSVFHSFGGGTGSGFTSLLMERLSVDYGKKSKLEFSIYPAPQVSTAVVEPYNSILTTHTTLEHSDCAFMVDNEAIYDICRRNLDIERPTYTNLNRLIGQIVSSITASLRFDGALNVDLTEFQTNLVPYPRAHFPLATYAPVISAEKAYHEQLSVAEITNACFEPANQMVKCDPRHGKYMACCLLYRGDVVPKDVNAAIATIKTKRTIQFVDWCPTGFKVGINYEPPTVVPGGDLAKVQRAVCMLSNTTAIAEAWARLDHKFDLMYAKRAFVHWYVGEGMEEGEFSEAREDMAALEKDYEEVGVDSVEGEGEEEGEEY
T1 sequence (P02554 whole entry): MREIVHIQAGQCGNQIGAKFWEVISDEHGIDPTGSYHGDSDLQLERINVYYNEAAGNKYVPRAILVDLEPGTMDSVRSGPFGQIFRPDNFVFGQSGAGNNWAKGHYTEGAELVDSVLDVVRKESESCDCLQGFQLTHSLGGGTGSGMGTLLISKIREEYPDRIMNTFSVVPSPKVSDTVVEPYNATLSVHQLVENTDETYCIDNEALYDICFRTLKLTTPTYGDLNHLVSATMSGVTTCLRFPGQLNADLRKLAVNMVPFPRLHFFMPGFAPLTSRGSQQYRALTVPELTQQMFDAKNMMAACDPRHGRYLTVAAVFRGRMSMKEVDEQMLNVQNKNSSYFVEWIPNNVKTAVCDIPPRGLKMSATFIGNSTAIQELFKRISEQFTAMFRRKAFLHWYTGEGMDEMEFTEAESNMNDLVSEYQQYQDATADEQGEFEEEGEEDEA

As usually defined, the IC50 is the concentration at which inhibition is half-maximal. Low readings indicate greater potency, high ones weaker potency. Take `CC[C@H](C)[C@@H]([C@@H](CC(=O)N1CCC[C@H]1[C@H](OC)[C@@H](C)C(=O)N[C@H](C)[C@@H](OC(=O)NCc1cn(C2OC(CO)C(O)C(O)C2O)nn1)c1ccccc1)OC)N(C)C(=O)[C@@H](NC(=O)[C@@H](NC)C(C)C)C(C)C` (stereo partly shown) [Example U-018] (H-[NMeV]V[Dil][Dolaproine][X2]-X4): the IC50 is ≤ 3 µM.
